For experiment [1], the system named is androgen receptor. The settings on record: prostate cancer cells; cited from earlier work.
The test system of experiment [2] is underarm odor, axillae skin of a panel of human subjects. The experiment in a line: Deodorant value test (modified): underarm odor scored 0-5 by three assessors every 24 h. The settings on record: Example 2; single solution on one axilla versus vehicle on the other; compared with 8.2% aluminum chlorohydrate and 0.4% chlorhexidine digluconate. The class given is in vivo. From the text: A test for the deodorant effects of monensin or resveratrol alone was first carried out. The positive controls were 8.2% aluminum chlorohydrate, a level that is used in most deodorant or antiperspirant products on the market and 0.4% chlorhexidine digluconate, a level that is usually used for bacterial killing. The negative control was a vehicle consisting of 60% ethanol and 40% water. Three experienced underarm odor assessors who are able to correctly rank the odor intensities based on the deodorant value test system U.S. Pat. No. 4,278,658) performed odor assessments. I)odorant assessment scores were recorded according to the inalodor category scale, when applied directly to the axillae skin of a panel of human subjects.
The test described in deodorant value test system has been modified by measuring odor intensity every 24 hours after treatment until odor intensity is detectable (score 1 or up) on a 0-5 score instead of just 24 hours after treatment.
In this test, twenty subjects selected by experienced odor assessors have an average odor score of 3.5 (range from score 3-5). To prevent any any-over effects from occurring, all of subjects have not used any underarm products before test for at least 10 days. […] At 24 hour intervals, each subject was evaluated for underarm odor by averaging the score of the three assessors until odor in test groups was detectable (score 1 or up). […]

Experiment [3] relates to apo D. The settings on record: cited from earlier work.

The structures appear in SMILES notation.

As for `Oc1ccc(C=Cc2cc(O)cc(O)c2)cc1` [Resveratrol, resveratrol], the “effect on expression and function of the androgen receptor” value in experiment [1] is “inhibit the expression and function of the androgen receptor”. Regarding `CC[C@@]1([C@@H]2O[C@@H]([C@H]3O[C@@](O)(CO)[C@H](C)C[C@@H]3C)C[C@@H]2C)CC[C@H]([C@]2(C)CC[C@]3(C[C@H](O)[C@@H](C)[C@@H]([C@@H](C)[C@@H](OC)[C@H](C)C(=O)O)O3)O2)O1` [monensin], the “effectiveness in preventing underarm odor (deodorant effect, FIG. 1)” value in experiment [2] is recorded as “more effective in preventing underarm odor than the positive control products”. Besides, the “effect on secretion of apo D from cells” value in experiment [3] is recorded as “decreases secretion of apo D from cells”.

These data come from US6426061B1, “Method and composition for preventing sweat-related odor” (priority 2001, dated 2002).
